# Results: patent US8580769B2, “Treatment of obesity, metabolic syndrome, and diabetes with protein kinase C inhibitors” (The United States of America as represented by the …, priority 2011, dated 2013)
# Columns and labels:
# [1] = tested on: aPKC immunoprecipitated from tissues previously stimulated by insulin; assay: fully-activated aPKC immunoprecipitated from insulin-stimulated tissues; type: biochemical
# Description: aPKCι Assays: aPKC enzyme activity was measured as previously described (Standaert et al., J. Biol. Chem. 279:24929-24934, 2004; Sajan et al., J. Lipid Res. 50:1133-1145, 2009; Sajan et al., Diabetologia 52:1197-1207, 2009; Farese et al., J. Clin. Invest. 117:2289-2301, 2007). […] After incubation, ^32P-labeled substrate was trapped on P-81 filter paper and counted. […]
# Het-MλKO mice = assay: clinical parameters in Het-MλKO mice (model of obesity/metabolic syndrome/T2DM); type: in vivo, mouse; conditions: ICAP-treated Mλ-Het KO mice (n = 12), 0.5 mg/kg body weight/day x 8 days s.c., mean ± SEM
# FoxO1 = assay: ser-256 phosphorylation of hepatic FoxO1 in wild type mice after a single ICAPP injection; type: in vivo, mouse; conditions: 1.5 mg/kg ICAPP s.c., basally and in response to insulin
# Description: Western Analyses: Western analyses were conducted as described (Standaert et al., J. Biol. Chem. 279:24929-24934, 2004; Sajan et al., J. Lipid Res. 50:1133-1145, 2009; Sajan et al., Diabetologia 52:1197-1207, 2009; Farese et al., J. Clin. Invest. 117:2289-2301, 2007), using the following antibodies/antisera for immunodetection after resolution of lysate proteins by SDS-PAGE: rabbit polyclonal anti-IRS-1 antiserum (Upstate Cell Signaling); rabbit polyclonal anti-IRS-2 antiserum (Santa Cruz Technologies); rabbit polyclonal anti-PKC-ζ/λ antiserum (Santa Cruz Biotechnologies); rabbit polyclonal anti-PKC-ζ antiserum (gift of Dr. Todd Sacktor); mouse monoclonal anti-PKC-ι/ζ antibodies (Transduction Laboratories/BD, East Rutherford, N.J.); rabbit polyclonal anti-Akt1/2 antiserum (Upstate Cell Signaling); rabbit polyclonal anti-phospho-serine -473-Akt1/2 antiserum (New England BioLabs, Beverly, Mass.): rabbit polyclonal anti-phospho-threonine-410-[…]/-403-PKC-ι/λ antiserum (Upstate Cell Signaling); rabbit polyclonal anti-phospho-threonine-560-PKC-ζ/-555-PKC-ι/λ antiserum (Invitrogen); and anti-p65/RelA subunit of NFκB (Santa Cruz Biotechnologies). […]
# Wild type mice were treated with 1.5 mg/kg ICAPP subcutaneously and after 2-30 hours, the mice were treated with 1 U/kg insulin 15 minutes before euthanasia. aPKC activity was determined as described in Example 1.
compound,measurement,setting,value
"O=C([O-])CC([S][Au])C(=O)[O-] (stereo not drawn) [ATM, aurothiomalate, reference compound]",inhibition of fully-activated aPKC immunoprecipitated from tissues previously stimulated by insulin,[1],did not inhibit
"NC(=O)c1ncn([C@@H]2C[C@H](CO)[C@@H](O)[C@H]2O)c1N [ICAP, 1H-imidazole-4-carboxamide 5-amino-1-[2,3-dihydroxy-4-[hydroxymethyl]cyclopentyl]-[1R-(1α,2β,3β,4α)]]",10-min-post-insulin serum glucose,Het-MλKO mice,91 ± 8 mg/dL
"NC(=O)c1ncn([C@@H]2C[C@H](COP(=O)(O)O)[C@@H](O)[C@H]2O)c1N [ICAPP, 1H-imidazole-4-carboxamide, 5-amino-1-[2,3-dihydroxy-4-[(phosphonooxy)methyl]cyclopentyl]-[1R-(1α,2β,3β,4α)]]",ser-256 phosphorylation of hepatic FoxO1,FoxO1,increased
